Paper PMC9106035, “Synthesis, X-ray Structure and Biological Studies of New Self-Assembled Cu(II) Complexes Derived from s-Triazine Schiff Base Ligand” (Molecules, 2022)

System: C. albicans (RCMB 005003(1) ATCC 10231)
Test: Minimum Inhibitory Concentration (MIC)
Type: cell-based
Protocol: Method S2: Antimi crobial studies a) Tested pathogenic microbes
The antibacterial a ctivity of the studied ligands and their Cu(II) complexes were evaluated against two Gram positive bacteria ((S. aureus (ATCC 25923) and B. […]
0.5). In case of fungi A. fumigatus (RCMB 002008) and C. albicans (RCMB 005003(1) ATCC 10231), the used medium in antagonistic activity against tested fungi is Potato Dextrose Agar, where Fluconazole was used standard antifungal agent. […]
c) Minimum Inhibitory Concentration (MIC)
Different dilutions of the compounds are inoculat ed with tested pathogenic microbes.
After incubation period of 96 well microplate, the results are meas ured using microplate reader. To determine at what level the MIC endpoint is established; subculture of test samples at different concentrati ons occurred in nutrient agar plates.

Structure (SMILES): CC(=NNc1nc(N2CCOCC2)nc(N2CCOCC2)n1)c1ccccc1[O-].CC(=O)[O-].[Cu+2] [Complex 2, [Cu(DMOT)(CH3COO)]]
- MIC: 5000 µg/mL
